Results as given in patent publication US8809359B2, “Phenyl amino pyrimidine bicyclic compounds and uses thereof” (YM Biosciences Australia Pty Ltd, priority 2012, dated 2014).
Like-named read-outs stand apart in the source and are kept apart here.

Key:
Type in all cases: biochemical
JAK1 = JAK1 (Homo sapiens, UniProt P23458); experiment: Enzyme screening kinase assay, JAK1
Protocol: (§1) Kinase assays were performed based on the method reported by Anastassiadis, T; et al Nature Biotechnology (2011); 29 (11); p 1039-p 1045 (doi:10.1038/nbt.2017).

JAK2 = JAK2 (Homo sapiens, UniProt O60674); experiment: Enzyme screening kinase assay, JAK2
Sequence of JAK2 (O60674 whole entry): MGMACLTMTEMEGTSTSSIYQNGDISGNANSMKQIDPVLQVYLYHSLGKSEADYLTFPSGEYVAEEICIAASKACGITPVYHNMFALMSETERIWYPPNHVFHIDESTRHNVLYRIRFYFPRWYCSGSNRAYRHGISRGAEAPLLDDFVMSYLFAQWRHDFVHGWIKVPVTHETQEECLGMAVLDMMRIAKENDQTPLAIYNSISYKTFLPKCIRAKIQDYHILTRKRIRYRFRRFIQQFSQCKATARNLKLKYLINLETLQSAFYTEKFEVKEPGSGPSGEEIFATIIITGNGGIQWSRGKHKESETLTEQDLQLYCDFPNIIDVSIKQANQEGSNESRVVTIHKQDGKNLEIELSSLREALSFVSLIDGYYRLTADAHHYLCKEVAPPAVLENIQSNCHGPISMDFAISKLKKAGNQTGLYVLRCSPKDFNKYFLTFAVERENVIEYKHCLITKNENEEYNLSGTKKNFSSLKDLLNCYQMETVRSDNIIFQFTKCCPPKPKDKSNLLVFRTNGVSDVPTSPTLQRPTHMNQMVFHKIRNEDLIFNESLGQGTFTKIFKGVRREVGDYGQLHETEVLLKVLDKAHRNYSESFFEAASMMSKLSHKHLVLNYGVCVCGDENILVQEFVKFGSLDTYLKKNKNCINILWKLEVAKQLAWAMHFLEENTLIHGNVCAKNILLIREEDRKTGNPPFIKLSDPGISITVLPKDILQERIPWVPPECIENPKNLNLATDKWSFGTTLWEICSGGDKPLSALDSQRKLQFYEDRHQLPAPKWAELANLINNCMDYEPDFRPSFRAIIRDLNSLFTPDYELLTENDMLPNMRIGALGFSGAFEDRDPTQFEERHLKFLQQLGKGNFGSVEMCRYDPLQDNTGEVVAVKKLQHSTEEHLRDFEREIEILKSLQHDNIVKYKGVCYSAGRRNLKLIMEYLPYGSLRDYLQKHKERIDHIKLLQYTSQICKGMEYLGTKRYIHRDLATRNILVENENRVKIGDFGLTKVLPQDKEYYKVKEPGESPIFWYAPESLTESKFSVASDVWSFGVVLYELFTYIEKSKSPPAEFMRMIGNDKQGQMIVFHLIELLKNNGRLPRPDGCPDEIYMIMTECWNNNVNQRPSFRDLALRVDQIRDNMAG
Protocol: as §1

JAK3 = target: T1, JAK3 (Homo sapiens, UniProt P52333); experiment: Enzyme screening kinase assay, JAK3
T1 sequence (P52333 1-1124): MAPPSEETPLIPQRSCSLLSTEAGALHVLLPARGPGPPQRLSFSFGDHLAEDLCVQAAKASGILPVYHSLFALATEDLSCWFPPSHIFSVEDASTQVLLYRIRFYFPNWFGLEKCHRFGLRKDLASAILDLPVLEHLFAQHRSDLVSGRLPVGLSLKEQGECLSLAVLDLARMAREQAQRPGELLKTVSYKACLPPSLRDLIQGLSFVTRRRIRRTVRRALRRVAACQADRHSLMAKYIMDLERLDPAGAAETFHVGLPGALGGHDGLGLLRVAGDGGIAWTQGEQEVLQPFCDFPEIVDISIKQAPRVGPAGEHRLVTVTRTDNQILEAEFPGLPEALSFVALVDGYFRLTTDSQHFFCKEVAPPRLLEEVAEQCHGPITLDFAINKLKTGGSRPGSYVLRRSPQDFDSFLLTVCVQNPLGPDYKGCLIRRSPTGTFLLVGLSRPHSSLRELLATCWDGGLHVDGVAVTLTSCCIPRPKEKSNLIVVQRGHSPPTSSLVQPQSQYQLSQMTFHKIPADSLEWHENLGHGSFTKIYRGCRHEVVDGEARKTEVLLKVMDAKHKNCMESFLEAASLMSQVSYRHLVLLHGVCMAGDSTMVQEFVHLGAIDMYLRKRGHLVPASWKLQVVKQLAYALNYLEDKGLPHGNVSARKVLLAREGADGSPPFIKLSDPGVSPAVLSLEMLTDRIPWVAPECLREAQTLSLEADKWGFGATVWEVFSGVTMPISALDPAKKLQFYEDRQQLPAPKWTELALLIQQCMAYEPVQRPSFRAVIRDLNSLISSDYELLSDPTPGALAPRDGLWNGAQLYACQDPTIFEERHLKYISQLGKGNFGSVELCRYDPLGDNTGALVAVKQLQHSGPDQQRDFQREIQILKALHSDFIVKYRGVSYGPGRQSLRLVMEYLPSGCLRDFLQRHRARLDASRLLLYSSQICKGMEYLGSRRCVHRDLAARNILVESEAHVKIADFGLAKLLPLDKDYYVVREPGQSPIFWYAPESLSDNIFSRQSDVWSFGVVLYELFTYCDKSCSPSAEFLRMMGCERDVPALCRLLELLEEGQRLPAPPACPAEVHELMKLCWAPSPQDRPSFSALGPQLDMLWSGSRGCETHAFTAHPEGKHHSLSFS
Protocol: as §1

TYK2 = TYK2 (Homo sapiens, UniProt P29597); experiment: Enzyme screening kinase assay, TYK2
Sequence of TYK2 (P29597 whole entry): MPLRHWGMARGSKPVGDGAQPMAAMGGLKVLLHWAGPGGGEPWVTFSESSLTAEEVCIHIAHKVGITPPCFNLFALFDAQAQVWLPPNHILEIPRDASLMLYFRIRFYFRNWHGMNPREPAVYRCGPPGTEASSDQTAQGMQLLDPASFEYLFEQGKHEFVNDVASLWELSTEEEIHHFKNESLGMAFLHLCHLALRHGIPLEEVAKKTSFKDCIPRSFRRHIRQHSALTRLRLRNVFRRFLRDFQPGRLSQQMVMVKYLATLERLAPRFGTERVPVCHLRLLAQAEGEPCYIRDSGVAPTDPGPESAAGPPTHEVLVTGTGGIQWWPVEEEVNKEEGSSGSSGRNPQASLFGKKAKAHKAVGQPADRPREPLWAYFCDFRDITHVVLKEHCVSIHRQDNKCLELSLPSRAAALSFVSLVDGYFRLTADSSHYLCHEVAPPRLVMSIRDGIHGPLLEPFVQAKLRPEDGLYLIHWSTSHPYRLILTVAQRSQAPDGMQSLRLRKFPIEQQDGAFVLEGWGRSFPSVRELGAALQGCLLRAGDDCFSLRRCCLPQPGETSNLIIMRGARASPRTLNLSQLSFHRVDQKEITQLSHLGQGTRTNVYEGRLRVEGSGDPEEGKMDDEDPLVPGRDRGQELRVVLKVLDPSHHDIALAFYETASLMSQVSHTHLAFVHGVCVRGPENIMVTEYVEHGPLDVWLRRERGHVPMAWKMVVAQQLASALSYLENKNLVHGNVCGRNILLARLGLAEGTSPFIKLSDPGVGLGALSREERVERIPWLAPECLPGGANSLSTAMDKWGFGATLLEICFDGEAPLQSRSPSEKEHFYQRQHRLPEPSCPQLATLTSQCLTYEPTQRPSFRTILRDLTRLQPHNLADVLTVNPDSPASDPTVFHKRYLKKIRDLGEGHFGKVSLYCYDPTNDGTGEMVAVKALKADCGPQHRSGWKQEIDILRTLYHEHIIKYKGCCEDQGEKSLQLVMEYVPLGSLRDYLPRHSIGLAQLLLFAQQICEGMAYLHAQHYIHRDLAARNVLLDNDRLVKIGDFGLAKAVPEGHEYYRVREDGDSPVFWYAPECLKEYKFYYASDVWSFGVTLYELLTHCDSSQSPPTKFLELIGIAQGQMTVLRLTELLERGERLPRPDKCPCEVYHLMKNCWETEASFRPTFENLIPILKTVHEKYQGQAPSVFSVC
Protocol: as §1

[1] = Data 1, read-out: JAK1 IC50 Data 1
[2] = Data 2, read-out: JAK1 IC50 Data 2
[3] = Data 1, read-out: JAK2 IC50 Data 1
[4] = Data 2, read-out: JAK2 IC50 Data 2
[5] = Data 1, read-out: JAK3 IC50 Data 1
[6] = Data 2, read-out: JAK3 IC50 Data 2
[7] = Data 1, read-out: TYK2 IC50 Data 1
[8] = Data 2, read-out: TYK2 IC50 Data 2

Sequence of JAK1 (P23458 whole entry): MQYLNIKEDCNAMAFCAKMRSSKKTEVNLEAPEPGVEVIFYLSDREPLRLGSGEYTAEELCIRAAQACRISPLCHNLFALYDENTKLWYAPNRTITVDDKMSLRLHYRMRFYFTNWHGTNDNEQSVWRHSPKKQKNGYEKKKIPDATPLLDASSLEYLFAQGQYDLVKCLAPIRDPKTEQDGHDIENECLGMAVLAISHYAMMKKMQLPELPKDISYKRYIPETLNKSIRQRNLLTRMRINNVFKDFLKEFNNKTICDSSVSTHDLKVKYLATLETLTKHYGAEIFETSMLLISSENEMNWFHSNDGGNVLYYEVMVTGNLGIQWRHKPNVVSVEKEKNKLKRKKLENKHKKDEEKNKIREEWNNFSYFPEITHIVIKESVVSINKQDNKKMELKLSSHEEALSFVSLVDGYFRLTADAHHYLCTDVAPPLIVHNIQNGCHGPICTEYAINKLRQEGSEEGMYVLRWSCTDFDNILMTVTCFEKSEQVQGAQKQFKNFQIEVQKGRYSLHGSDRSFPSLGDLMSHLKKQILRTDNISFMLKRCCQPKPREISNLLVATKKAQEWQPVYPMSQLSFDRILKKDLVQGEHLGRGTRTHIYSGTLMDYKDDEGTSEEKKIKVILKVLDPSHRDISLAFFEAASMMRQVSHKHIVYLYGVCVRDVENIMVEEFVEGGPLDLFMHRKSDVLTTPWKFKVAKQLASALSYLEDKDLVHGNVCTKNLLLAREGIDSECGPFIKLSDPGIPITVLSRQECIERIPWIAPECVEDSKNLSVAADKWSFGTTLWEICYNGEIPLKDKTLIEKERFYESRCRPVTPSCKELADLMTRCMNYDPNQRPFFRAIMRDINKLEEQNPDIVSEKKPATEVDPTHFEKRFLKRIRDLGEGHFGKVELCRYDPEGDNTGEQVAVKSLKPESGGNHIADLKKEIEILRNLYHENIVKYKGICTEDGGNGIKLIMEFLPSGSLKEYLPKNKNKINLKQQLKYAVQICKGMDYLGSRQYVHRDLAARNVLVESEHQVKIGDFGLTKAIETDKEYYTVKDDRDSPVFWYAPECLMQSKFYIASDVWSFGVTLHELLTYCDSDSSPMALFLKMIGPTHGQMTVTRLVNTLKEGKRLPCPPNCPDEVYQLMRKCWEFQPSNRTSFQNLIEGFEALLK

N#CCNC(=O)c1ccc(-c2ccnc(Nc3ccc(N4CC5(CCO5)C4)cc3)n2)cc1 [Compound 1, 4-(2-((4-(1-oxa-6-azaspiro[3.3]heptan-6-yl)phenyl)amino)pyrimidin-4-yl)-N-(cyanomethyl)benzamide]
IC50 (JAK1; [1]): 224 nM
IC50 (JAK1; [2]): 215 nM
IC50 (JAK2; [3]): 108 nM
IC50 (JAK2; [4]): 103 nM
IC50 (JAK3; [5]): 213 nM
IC50 (JAK3; [6]): 194 nM
IC50 (TYK2; [7]): 38 nM
IC50 (TYK2; [8]): 35 nM

N#CCNC(=O)c1ccc(-c2ccnc(Nc3ccc(N4CCC5(CCO5)CC4)cc3)n2)cc1 [Compound 2, 4-(2-((4-(1-oxa-7-azaspiro[3.5]nonan-7-yl)phenyl)amino)pyrimidin-4-yl)-N-(cyanomethyl)benzamide]
IC50 (JAK1; [1]): 30.6 nM
IC50 (JAK1; [2]): 37.9 nM
IC50 (JAK2; [3]): 22.2 nM
IC50 (JAK2; [4]): 24.5 nM
IC50 (JAK3; [5]): 41.8 nM
IC50 (JAK3; [6]): 44.8 nM
IC50 (TYK2; [7]): 5.09 nM
IC50 (TYK2; [8]): 5.65 nM

N#CCNC(=O)c1ccc(-c2ccnc(Nc3ccc(N4CC5CC(C4)O5)cc3)n2)cc1 [Compound 3, 4-(2-((4-(6-oxa-3-azabicyclo[3.1.1]heptan-3-yl)phenyl)amino)pyrimidin-4-yl)-N-(cyanomethyl)benzamide]
IC50 (JAK1; [1]): 32.3 nM
IC50 (JAK1; [2]): 41.7 nM
IC50 (JAK2; [3]): 47 nM
IC50 (JAK2; [4]): 45 nM
IC50 (JAK3; [5]): 80.1 nM
IC50 (JAK3; [6]): 82.4 nM
IC50 (TYK2; [7]): 6.83 nM
IC50 (TYK2; [8]): 7.3 nM

N#CCNC(=O)c1ccc(-c2ccnc(Nc3ccc(N4CC5CCC(C4)O5)cc3)n2)cc1 [Compound 4, 4-(2-((4-(8-oxa-3-azabicyclo[3.2.1]octan-3-yl)phenyl)amino)pyrimidin-4-yl)-N-(cyanomethyl)benzamide]
IC50 (JAK1; [1]): 28.8 nM
IC50 (JAK1; [2]): 28.6 nM
IC50 (JAK2; [3]): 29.3 nM
IC50 (JAK2; [4]): 29.1 nM
IC50 (JAK3; [5]): 92.3 nM
IC50 (JAK3; [6]): 80.8 nM
IC50 (TYK2; [7]): 5.22 nM
IC50 (TYK2; [8]): 6.17 nM

N#CCNC(=O)c1ccc(-c2ccnc(Nc3ccc(N4CCC[C@]5(CCO5)C4)cc3)n2)cc1 [Compound 5, (S)-4-(2-((4-(1-oxa-6-azaspiro[3.5]nonan-6-yl)phenyl)amino)pyrimidin-4-yl)-N-(cyanomethyl)benzamide]
IC50 (JAK1; [1]): 10.1 nM
IC50 (JAK1; [2]): 10.2 nM
IC50 (JAK2; [3]): 30 nM
IC50 (JAK2; [4]): 25.9 nM
IC50 (JAK3; [5]): 60.9 nM
IC50 (JAK3; [6]): 56.3 nM
IC50 (TYK2; [7]): 0.69 nM
IC50 (TYK2; [8]): 0.91 nM

N#CCNC(=O)c1ccc(-c2ccnc(Nc3ccc(N4CCC[C@@]5(CCO5)C4)cc3)n2)cc1 [Compound 6, (R)-4-(2-((4-(1-oxa-6-azaspiro[3.5]nonan-6-yl)phenyl)amino)pyrimidin-4-yl)-N-(cyanomethyl)benzamide]
IC50 (JAK1; [1]): 17.5 nM
IC50 (JAK1; [2]): 19.8 nM
IC50 (JAK2; [3]): 14.2 nM
IC50 (JAK2; [4]): 14.1 nM
IC50 (JAK3; [5]): 33.4 nM
IC50 (JAK3; [6]): 32.7 nM
IC50 (TYK2; [7]): 2.94 nM
IC50 (TYK2; [8]): 2.14 nM

N#CCNC(=O)c1ccc(-c2ccnc(Nc3ccc(N4CC[C@]5(CCO5)C4)cc3)n2)cc1 [Compound 7, (S)-4-(2-((4-(1-oxa-6-azaspiro[3.4]octan-6-yl)phenyl)amino)pyrimidin-4-yl)-N-(cyanomethyl)benzamide]
IC50 (JAK1; [1]): 31.5 nM
IC50 (JAK1; [2]): 29.2 nM
IC50 (JAK2; [3]): 30.3 nM
IC50 (JAK2; [4]): 34 nM
IC50 (JAK3; [5]): 60.9 nM
IC50 (JAK3; [6]): 50.8 nM
IC50 (TYK2; [7]): 4.87 nM
IC50 (TYK2; [8]): 4.29 nM

N#CCNC(=O)c1ccc(-c2ccnc(Nc3ccc(N4CC[C@@]5(CCO5)C4)cc3)n2)cc1 [Compound 8, (R)-4-(2-((4-(1-oxa-6-azaspiro[3.4]octan-6-yl)phenyl)amino)pyrimidin-4-yl)-N-(cyanomethyl)benzamide]
IC50 (JAK1; [1]): 56.9 nM
IC50 (JAK1; [2]): 35.7 nM
IC50 (JAK2; [3]): 43.5 nM
IC50 (JAK2; [4]): 46.4 nM
IC50 (JAK3; [5]): 79.3 nM
IC50 (JAK3; [6]): 78.5 nM
IC50 (TYK2; [7]): 9.98 nM
IC50 (TYK2; [8]): 9.98 nM

N#CCNC(=O)c1ccc(-c2ccnc(Nc3ccc(N4C[C@@H]5C[C@H]4CO5)cc3)n2)cc1 [Compound 9, 4-(2-((4-((1S,4S)-2-oxa-5-azabicyclo[2.2.1]heptan-5-yl)phenyl)amino)pyrimidin-4-yl)-N-(cyanomethyl)benzamide]
IC50 (JAK1; [1]): 22.4 nM
IC50 (JAK1; [2]): 21.7 nM
IC50 (JAK2; [3]): 11.1 nM
IC50 (JAK2; [4]): 13.4 nM
IC50 (JAK3; [5]): 12.8 nM
IC50 (JAK3; [6]): 14 nM
IC50 (TYK2; [7]): 8.07 nM
IC50 (TYK2; [8]): 7.4 nM

N#CCNC(=O)c1ccc(-c2ccnc(Nc3ccc(N4C[C@H]5C[C@@H]4CO5)cc3)n2)cc1 [Compound 10, 4-(2-((4-((1R,4R)-2-oxa-5-azabicyclo[2.2.1]heptan-5-yl)phenyl)amino)pyrimidin-4-yl)-N-(cyanomethyl)benzamide]
IC50 (JAK1; [1]): 16 nM
IC50 (JAK1; [2]): 15.9 nM
IC50 (JAK2; [3]): 17 nM
IC50 (JAK2; [4]): 16.8 nM
IC50 (JAK3; [5]): 22.1 nM
IC50 (JAK3; [6]): 27 nM
IC50 (TYK2; [7]): 4.31 nM
IC50 (TYK2; [8]): 2.58 nM

N#CCNC(=O)c1ccc(-c2ccnc(Nc3ccc(N4CC5(COC5)C4)cc3)n2)cc1 [Compound 11, 4-(2-((4-(2-oxa-6-azaspiro[3.3]heptan-6-yl)phenyl)amino)pyrimidin-4-yl)-N-(cyanomethyl)benzamide]
IC50 (JAK1; [1]): 32.8 nM
IC50 (JAK1; [2]): 47.4 nM
IC50 (JAK2; [3]): 10.6 nM
IC50 (JAK2; [4]): 10.8 nM
IC50 (JAK3; [5]): 33.8 nM
IC50 (JAK3; [6]): 26.3 nM
IC50 (TYK2; [7]): 9.47 nM
IC50 (TYK2; [8]): 8.54 nM
